This note sets out measurements from article PMC5106528, “High-Throughput Toxicity and Phenotypic Screening of 3D Human Neural Progenitor Cell Cultures on a Microarray Chip Platform” (Stem Cell Reports, 2016).

The structures appear in SMILES notation. Read-outs that look alike come from different tables or passages of the source. Marks after values point to notes of the source that are not given here.

For series [1], the system named is undifferentiated ReNcell VM NPCs. The series can be described thus: cells. How it is done:
(§1) On-chip cultures of undifferentiated and 10-day differentiated NPCs were stamped with WellChips filled with compound-containing solutions and incubated for 72 hr prior to viability assessment. Vehicle-control normalized viabilities were plotted against compound concentration to generate dose-response plots (Figures 5A and S4). […] The sigmoidal fits for undifferentiated and differentiating NPCs were compared to assess whether differential sensitivities (i.e., different IC50 values) existed for the screened compounds.
(§2) Cell viability was determined in 3D on-chip cultures using a mammalian cell viability assay (LIVE/DEAD, Invitrogen). Prior to the assay, dead cell controls were prepared with 30 min incubation in a WellChip containing either […] 0.5% (w/v) saponin-DMEM/F12 medium in its microwells. […] After staining, PillarChips were rinsed twice with warm DPBS and incubated in DPBS containing 50 mM trehalose (Sigma) for 10 min before rapid drying with nitrogen and storage in the dark. Dried PillarChips were imaged with a Thermo Scientific Cellomics ArrayScan VTI high-content system.
(§3) Undifferentiated and differentiated microchip cultures were prepared as described above. Chemicals were purchased from Sigma or the NIH Small Molecule Repository (Table S2). Concentrated stocks were prepared and diluted into ReNcell Maintenance Medium to prepare the highest screened concentration solution for each compound. Four-fold serial dilutions were made in ReNcell Maintenance Medium, with all solutions having a final concentration of 0.5% or 1% DMSO (v/v) and 20 μg/mL Matrigel. For undifferentiated cultures, the solutions also contained 20 ng/mL of EGF and FGF2. These solutions were printed into WellChips, covered with a gas-permeable membrane, and warmed at 37°C for at least 5 min before stamping with cells. Each WellChip contained six compounds each at six concentrations (n = 10 biological replicates for each concentration) and the appropriate medium containing 0.5% or 1% DMSO for vehicle and dead controls (n = 32 biological replicates per control). PillarChip cultures were incubated with compounds for 72 hr with daily medium exchange to freshly prepared WellChips containing compounds at the appropriate concentrations. […] On-chip toxicity screens were repeated three times for undifferentiated and differentiated cultures. […]

Series [2] has as its system differentiating ReNcell VM NPCs. The series can be described thus: cells. The protocol:
as §1, §2, §3

Series [3] has as its system undifferentiated ReNcell VM NPCs. Put plainly: On-chip proliferation assay (EdU incorporation), undifferentiated NPCs. Particulars: for Effect on proliferation of NPC cultures (in words): state not specified; for IC50: Homo sapiens, ReNcell VM. Format: cell-based, human. The text has this: (§4) Differential toxic effects could be explained, in part, as a consequence of the different proliferative states between the undifferentiated and differentiating NPCs. To this end, the thymidine analog, 5-ethynyl-2′-deoxyuridine (EdU), was used to detect actively proliferating cells on-chip following exposure to compounds or vehicle control to determine dose-response effects on proliferation (Figures 5B and S5), and sigmoidal curves were fit, when appropriate, to obtain IC50 values (Table 1). We found ∼60% of undifferentiated NPCs incorporated EdU over a 24-hr period as opposed to ∼3% of differentiating cultures.
(§5) Undifferentiated and differentiating cultures were screened for toxicity as described previously, except that after the first 48 hr of exposure 10 μM EdU (Click-iT EdU, Invitrogen) was added to the compound-containing medium for the final 24 hr. After 72 hr, on-chip cultures were fixed and processed as described previously for on-chip immunofluorescence; however, instead of antibody staining the cultures were incubated with solution containing Alexa Fluor 488-azide for 30 min as specified in the product manual. Cultures were then rinsed with DPBS for 30 min, incubated in DPBS with Hoechst 33342 (5 μg/mL) for 30 min, and washed in DPBS for 30 min before proceeding with a trehalose wash and drying as described previously. Nuclei were selected using Cellomics software from blue channel images to create a mask, which was used for identification of fluorescently labeled EdU in the green channel for quantification of actively proliferating cells over the 24-hr EdU exposure.

For series [4], the system named is differentiating ReNcell VM NPCs. The series can be described thus: cells. Format: cell-based, human. Particulars: for IC50: Homo sapiens, ReNcell VM.
From the text: as §4, §5

The mark [5] stands for this setting: undifferentiated cultures, 72 hr.
[6] abbreviates: differentiating cultures, 72 hr.
The mark [7] stands for this setting: Homo sapiens, ReNcell VM, 72 h, read-out: Viability Effects Undifferentiated IC50.
[8] abbreviates: Homo sapiens, ReNcell VM, 72 h, read-out: Viability Effects Undifferentiated log(IC50 ± SEM) (converted).
Setting [9] is: Homo sapiens, ReNcell VM, read-out: Viability Effects Differentiating IC50.
Where [10] appears, read: Homo sapiens, ReNcell VM, read-out: Viability Effects Differentiating log(IC50 ± SEM) (converted).
The mark [11] stands for this setting: undifferentiated, 72 hr exposure, EdU for the final 24 hr, sigmoidal fit, read-out: Proliferation Effects Undifferentiating IC50.
Where [12] appears, read: undifferentiated, 72 hr exposure, EdU for the final 24 hr, sigmoidal fit, read-out: Proliferation Effects Undifferentiating log(IC50 ± SEM) (converted).
[13] abbreviates: differentiating, 72 hr exposure, EdU for the final 24 hr, sigmoidal fit, read-out: Proliferation Effects Differentiating IC50.
[14] abbreviates: differentiating, 72 hr exposure, EdU for the final 24 hr, sigmoidal fit, read-out: Proliferation Effects Differentiating log(IC50 ± SEM) (converted).

`O=C1CN=C(c2ccccc2)c2cc([N+](=O)[O-])ccc2N1` [Nitrazepam]: in series [1], the “Normalized viability at Cmax, Undifferentiated, Mean ± SEM” value turned out to be 1.16 ± 0.13. The “Normalized viability at Cmax, Differentiating, Mean ± SEM” value in series [2] is listed as 1.07 ± 0.07.

Regarding `Nc1ccn([C@@H]2O[C@H](CO)[C@@H](O)[C@@H]2O)c(=O)n1` [Cytosine Arabinoside], the “Normalized viability at Cmax, Undifferentiated, Mean ± SEM” value in series [1] turned out to be 0.40 ± 0.03. Further, the IC50 in series [1] (read-out: Viability Effects Undifferentiated IC50, undifferentiated (+EGF/FGF2), 72 hr exposure, 1% Matrigel on-chip, sigmoidal fit) was determined as 0.33 µM; in series [2] (read-out: Viability Effects Differentiating IC50, 10-day differentiated (−EGF/FGF2), 72 hr exposure, 1% Matrigel on-chip, sigmoidal fit), 3.5 µM. Also, in series [1] (undifferentiated (+EGF/FGF2), 72 hr exposure, 1% Matrigel on-chip, sigmoidal fit), the “Viability Effects Undifferentiated log(IC50 ± SEM)” value was −0.48 ± 0.17 ^b log(μM). The “Normalized viability at Cmax, Differentiating, Mean ± SEM” value in series [2] amounted to 0.47 ± 0.12. In series [2] (10-day differentiated (−EGF/FGF2), 72 hr exposure, 1% Matrigel on-chip, sigmoidal fit), the “Viability Effects Differentiating log(IC50 ± SEM)” value is 0.55 ± 0.55 log(μM). The “Proliferation Effects Undifferentiating log(IC50 ± SEM)” value in series [3] (undifferentiated, 72 hr exposure, EdU for the final 24 hr, sigmoidal fit) is reported as < −1 log(μM). In addition, the “Proliferation Effects Differentiating log(IC50 ± SEM)” value in series [4] (differentiating, 72 hr exposure, EdU for the final 24 hr, sigmoidal fit) is on record as < −1 log(μM).

Turning to `CCCC(CCC)C(=O)O` [Valproic Acid], in series [1] (human, 72 h), the “Normalized viability at Cmax, Undifferentiated, Mean ± SEM” value is recorded as 0.99 ± 0.08. For the same compound, in series [2] (human, 72 h), the “Normalized viability at Cmax, Differentiating, Mean ± SEM” value stood at 1.09 ± 0.10.

Regarding `CC1(C)C[C@@H]1C(=O)N/C(=C\CCCCSC[C@H](N)C(=O)O)C(=O)O` [Cilastatin], the “Effect on cell viability (in words)” value in series [1] (setting [5]) and in series [2] (setting [6]) was “had no effect” throughout. Besides, the “Effect on proliferation of NPC cultures (in words)” value in series [3] is recorded as “did not”.

For the compound `CC(=O)Nc1ccc(O)cc1` [Acetaminophen], in series [1], the “Cytotoxicity (in words)” value is reported as “no cytotoxicity at functionally relevant concentrations”. For the same compound, the IC50 in series [1] (setting [7]) was 1400 µM; in series [1] (setting [8]), 1260 µM; in series [2] (setting [9]), 18000 µM; in series [2] (setting [10]), 20000 µM; in series [3] (setting [11]), 1000 µM; in series [3] (setting [12]), 1040 µM. The IC50 in series [4] (setting [13]) and in series [4] (setting [14]) was 18200 µM in each case. The “Normalized viability at Cmax, Undifferentiated, Mean ± SEM” value in series [1] (human, 72 h) is -0.16 ± 0.07. Also, in series [2] (human, 72 h), the “Normalized viability at Cmax, Differentiating, Mean ± SEM” value is listed as -0.1 ± 0.03.

Take `O=c1[nH]cc(F)c(=O)[nH]1` [5-Fluorouracil]: the “Effect on cell viability (in words)” value was “nearly complete killing” in series [1] and “minimally impacting” in series [2]. Also, the IC50 in series [1] (setting [7]) is 2.3 µM; in series [1] (setting [8]), 2.29 µM; in series [2] (setting [9]), 2.3 µM; in series [2] (setting [10]) it was 2.24 µM; in series [3] (setting [11]), 1.35 µM; in series [3] (setting [12]) it was 1.38 µM. Moreover, the IC50 in series [4] (setting [13]) and in series [4] (setting [14]) was 1.82 µM in each case. For the same compound, the “Normalized viability at Cmax, Undifferentiated, Mean ± SEM” value in series [1] (human, 72 h) is reported as 0.15 ± 0.10. In addition, in series [2] (human, 72 h), the “Normalized viability at Cmax, Differentiating, Mean ± SEM” value stood at 0.81 ± 0.17. Moreover, the “Effect on proliferation of NPC cultures (in words)” value in series [3] is recorded as “inhibit the proliferation”. For the same compound, the “Effect on EdU incorporation (in words)” value in series [3] (undifferentiated cultures) and in series [4] (differentiating cultures) was “sharp decrease to no EdU incorporation” in each case.

Take `C[C@@H]1C[C@H]2[C@@H]3CCC4=CC(=O)C=C[C@]4(C)[C@@]3(F)[C@@H](O)C[C@]2(C)[C@@]1(O)C(=O)CO` [Dexamethasone]: the “Normalized viability at Cmax, Undifferentiated, Mean ± SEM” value in series [1] (human, 72 h) came to 1.35 ± 0.33. Also, the “Normalized viability at Cmax, Differentiating, Mean ± SEM” value in series [2] (human, 72 h) came to 1.08 ± 0.16.

For `[Cl][Mn][Cl]` [Manganese Chloride], the “Effect on cell viability (in words)” value in series [1] (setting [5]) and in series [2] (setting [6]) was “did not reduce cell viability” each time.
